Data: patent publication US11541132B2, “Radiolabeled compounds” (Hoffmann-La Roche Inc., priority 2017, dated 2023)

Legend:
[1] = target: T1, native aSyn aggregates in A30P transgenic mouse brain sections (Homo sapiens, UniProt P37840, A30P); experiment: aSyn in vitro displacement assay ([3H]Example-3 autoradiography); assay type: binding, mutant human aSyn gene); conditions: 3 nM [3H]Example-3, A30P transgenic mouse brain sections; for inhibition at 1 µM: 1 μM compound, read-out: PCT_INHIB A30P @ 1 μM (% displacement of [3H]Example-3); for inhibition at 3 µM: 3 μM compound, read-out: PCT_INHIB A30P @ 3 μM
T1 construct: from tissue; host or cells: brain sections (midbrain and pons as ROI) of A30P transgenic mice, line B6.D2-Tg(Thy1-SNCA*30P)31Pjk

[2] = target: T2, native Aβ aggregates in human AD brain tissue sections (Homo sapiens, UniProt P05067); experiment: Aβ in vitro displacement assay (selectivity counterscreen, [3H]Example 3 autoradiography); assay type: binding; conditions: 3 nM [3H]Example 3, human AD brain sections; for inhibition at 1 µM: 1 μM compound, read-out: sel. counterscreen PCT_INHIB AD @ 1 μM (% displacement of [3H]Example 3); for inhibition at 3 µM: 3 μM compound, read-out: sel. counterscreen PCT_INHIB AD @ 3 μM
T2 construct: native Aβ aggregates in human AD brain tissue samples; from tissue; host or cells: human AD brain tissue sections
T2 sequence (P05067 672-713 limits assumed): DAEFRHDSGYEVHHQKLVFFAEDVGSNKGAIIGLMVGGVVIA

[3] = target: T3, aSyn aggregates in A30P transgenic mouse brain tissue (Homo sapiens, UniProt P37840, A30P); experiment: aSyn in vitro binding assay (autoradiography of tritiated compounds); set-up: species or system mutant human aSyn gene)
T3 construct: from tissue; host or cells: brain sections (midbrain and pons as ROI) of A30P transgenic mice, line B6.D2-Tg(Thy1-SNCA*30P)31Pjk
Experimental: (§1) Ten μm thick A30P transgenic mouse brain sections and human PD brain sections are generated with a cryostat (Leica CM3050) at −17° C. chamber temperature and −15° C. object temperature. Sections are transferred to Histobond+ microscope slides (Marienfeld Laboratory Glasware). After drying for 3 hours at room temperature the sections are stored at −20° C. The sections are incubated with the radioligand (0.3-30 nM) and the respective cold compound (at various concentrations) in 50 mM Tris buffer, pH 7.4 at room temperature for 30 min. After washing 3×10 min at 4° C. in 50 mM Tris buffer, pH 7.4 and 3 quick dips in H2O dist. at 4° C. the sections are dried at 4° C. for 3 h. The sections are placed in a FujiFilm Cassette, exposed to an Imaging Plate (BAS-IP TR 2025) for five days and afterwards scanned with a FujiFilm IP reader (BAS-5000) with a resolution of […] per pixel.
Antibody staining of sections is performed after exposure and scanning of the tissue sections undergoing classical autoradiographical analysis. Brain sections were hydrated in PBS and blocked in 1% bovine serum albumin, 1% ovalbumin and 1% normal goat serum in PSB for 20 min. This is followed by overnight incubation at 4° C. with a mixture of anti-aSyn pS129 monoclonal antibody (generated in-house; 1 μg/mL) in blocking buffer. […]

[4] = target: T4, aSyn aggregates (LBs) in human PD brain tissue (Homo sapiens, UniProt P37840); experiment: aSyn in vitro binding assay on human PD tissue sections; conditions: higher magnification
T4 construct: tissue Banner Sun Health Research Institute; host or cells: human PD brain (cortical) tissue sections
Experimental: Human PD brain tissue blocks were obtained from the Banner Sun Health Research Institute (Sun City, Ariz., USA). Pathological diagnosis of PD was made according to standard criteria based on neuropathological data.
as §1
Antibody staining of sections is performed after exposure and scanning of the tissue sections undergoing classical autoradiographical analysis. Brain sections were hydrated in PBS and blocked in 1% bovine serum albumin, 1% ovalbumin and 1% normal goat serum in PSB for 20 min. […]

[5] = target: native Aβ aggregates in human AD brain sections (Homo sapiens, UniProt P05067); experiment: Aβ in vitro binding assay (autoradiography); conditions: human AD cortical tissue section, 3 nM (FIG. 8)
Sequence of native Aβ aggregates in human AD brain sections (P05067 672-713 limits assumed): as above
Experimental: Ten μm thick A30P transgenic mouse brain sections and human PD brain sections are generated with a cryostat (Leica CM3050) at −17° C. chamber temperature and −15° C. object temperature. Sections are transferred to Histobond+ microscope slides (Marienfeld Laboratory Glasware). After drying for 3 hours at room temperature the sections are stored at −20° C. The sections are incubated with the radioligand (0.3-30 nM) and the respective cold compound (at various concentrations) in 50 mM Tris buffer, pH 7.4 at room temperature for 30 min. After washing 3×10 min at 4° C. in 50 mM Tris buffer, pH 7.4 and 3 quick dips in H2O dist. at 4° C. the sections are dried at 4° C. for 3 h. The sections are placed in a FujiFilm Cassette, exposed to an Imaging Plate (BAS-IP TR 2025) for five days and afterwards scanned with a FujiFilm IP reader (BAS-5000) with a resolution of 25 μM per pixel.
This direct in vitro binding assay assesses the affinity of radiotracers for native Aβ aggregates in tissue sections by autoradiography.

inhibition at 1 µM [1] | inhibition at 1 µM [2] | inhibition at 3 µM [1] | inhibition at 3 µM [2] | Compound | further results
93% | 84% |  |  | COC(=O)c1ccc(N2CCN(c3ccc(NC(=O)c4ccc(OC)cc4)cc3)CC2)nc1 [Example 172, Methyl 6-(4-(4-(4-methoxybenzamido)phenyl)piperazin-1-yl)nicotinate] | 
 |  | 87% | 100% | C#CCOc1ccc(C(=O)Nc2ccc(N3CCN(c4ccc(C#N)cn4)CC3)cc2)cc1 [Example 174, N-[4-[4-(5-Cyano-2-pyridyl)piperazin-1-yl]phenyl]-4-prop-2-ynoxy-benzamide] | 
 |  | 102% | 97% | C#Cc1ccc(N2CCN(c3ccc(NC(=O)c4ccc(OC)cc4)cc3)CC2)nc1 [Example 176, N-[4-[4-(5-Ethynyl-2-pyridyl)piperazin-1-yl]phenyl]-4-methoxy-benzamide] | 

More lines, now with the values behind:

Compound | inhibition at 1 µM [1] | inhibition at 1 µM [2] | inhibition at 3 µM [1] | inhibition at 3 µM [2] | further results
COc1ccc(C(=O)Nc2ccc(N3CCN(c4ccc(C#N)cc4)CC3)cc2)c(C)c1 [Example 168, N-(4-(4-(4-Cyanophenyl)piperazin-1-yl)phenyl)-4-methoxy-2-methylbenzamide] | 95% | 96% |  |  | 
COc1ccc(C(=O)Nc2ccc(N3CCN(c4ccc(C#N)cc4)CC3)cc2)cc1OC [Example 169, N-(4-(4-(4-Cyanophenyl)piperazin-1-yl)phenyl)-3,4-dimethoxybenzamide] | 83% | 82% |  |  | 
COc1ccc(C(=O)Nc2ccc(N3CCN(c4ccc(C#N)cn4)CC3)cc2)cc1C [Example 170, N-(4-(4-(5-Cyanopyridin-2-yl)piperazin-1-yl)phenyl)-4-methoxy-3-methylbenzamide] | 86% | 82% |  |  | 
COc1ccc(C(=O)Nc2ccc(N3CCN(c4ccc(C#N)cn4)CC3)cc2)cn1 [Example 171, N-(4-(4-(5-Cyanopyridin-2-yl)piperazin-1-yl)phenyl)-6-methoxynicotinamide] | 89% | 92% |  |  | 
COc1ccc(C(=O)Nc2ccc(N3CCN(c4ccc(C#N)nc4)CC3)cc2)nc1 [Example 173, N-(4-(4-(6-Cyanopyridin-3-yl)piperazin-1-yl)phenyl)-5-methoxypicolinamide] | 83% | 82% |  |  | 
C#CCOCCOc1ccc(C(=O)Nc2ccc(N3CCN(c4ccc(C#N)cn4)CC3)cc2)cc1 [Example 175, N-[4-[4-(5-Cyano-2-pyridyl)piperazin-1-yl]phenyl]-4-(2-prop-2-ynoxyethoxy)benzamide] |  |  | 85% | 98% | 
C#CCOc1ccc(C(=O)Nc2ccc(N3CCN(c4ccccn4)CC3)cc2)cc1 [Example 177, 4-Prop-2-ynoxy-N-[4-[4-(2-pyridyl)piperazin-1-yl]phenyl]benzamide] |  |  | 96% | 97% | 
C#CCOCCOc1ccc(C(=O)Nc2ccc(N3CCN(c4ccccn4)CC3)cc2)cc1 [Example 178, 4-(2-Prop-2-ynoxyethoxy)-N-[4-[4-(2-pyridyl)piperazin-1-yl]phenyl]benzamide] |  |  | 97% | 93% | 
[3H]C([3H])([3H])Oc1ccc(C(=O)Nc2ccc(N3CCN(c4ccccn4)CC3)cc2)cc1 [[^3H]Example-3, 4-[^3H3] Methoxy-N-[4-(4-pyridin-2-ylpiperazin-1-yl)phenyl]benzamide] |  |  |  |  | co-localization of radioligand binding and aSyn antibody pS129 staining ([3]; A30P transgenic mouse brain sections): excellent co-localization; binding to aSyn aggregates in A30P transgenic mouse brain tissue ([3]; radioligand 3 nM (FIG. 1), midbrain and pons): strong binding; co-localization of autoradiogram hot spots with LBs stained by aSyn mAb pS129 [4]: good co-localization
[3H]C([3H])(F)Oc1ccc(C(=O)Nc2ccc(N3CCN(c4cccnc4)CC3)cc2)cc1 [[^3H]Example-134, [^3H]4-(Fluoromethoxy)-N-(4-(4-(pyridin-3-yl)piperazin-1-yl)phenyl)benzamide] |  |  |  |  | co-localization of radioligand binding and Aβ mAb staining [5]: excellent co-localization
